Data on 17 molecules can be found in patent US8865686B2, “Tetracycline compounds as tyrosyl-DNA phosphodiesterase I inhibitors” (The United States of America, as Represented by the …, priority 2006, dated 2014).

Some results are limits rather than exact numbers.

The target of the first test is T1, Recombinant Tdp1 (Homo sapiens (Human), UniProt Q9NUW8). Kind of test: AlphaScreen Tdp1 assay (qHTS, FITC/biotin phosphotyrosine DNA substrate). In kind it is biochemical.
T1 sequence (Q9NUW8 whole entry): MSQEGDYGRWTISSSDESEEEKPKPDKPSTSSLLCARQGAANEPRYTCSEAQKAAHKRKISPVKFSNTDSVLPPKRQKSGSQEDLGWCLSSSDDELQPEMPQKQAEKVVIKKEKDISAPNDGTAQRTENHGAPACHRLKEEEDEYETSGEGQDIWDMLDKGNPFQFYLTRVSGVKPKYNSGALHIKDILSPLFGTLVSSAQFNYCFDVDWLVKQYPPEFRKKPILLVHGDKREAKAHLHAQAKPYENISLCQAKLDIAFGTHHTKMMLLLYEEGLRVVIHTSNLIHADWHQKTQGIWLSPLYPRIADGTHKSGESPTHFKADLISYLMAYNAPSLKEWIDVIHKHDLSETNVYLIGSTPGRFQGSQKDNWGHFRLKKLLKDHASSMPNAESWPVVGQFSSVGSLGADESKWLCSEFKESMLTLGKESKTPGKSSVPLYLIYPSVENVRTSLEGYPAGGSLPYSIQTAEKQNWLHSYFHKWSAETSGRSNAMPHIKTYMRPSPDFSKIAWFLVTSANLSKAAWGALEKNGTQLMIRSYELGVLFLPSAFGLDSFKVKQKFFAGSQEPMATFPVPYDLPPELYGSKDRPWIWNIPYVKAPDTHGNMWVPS
Details: not given
The procedure:
Tween-20, KCl, fluorescein isothiocyanate (FITC), and PBS were procured from Sigma-Aldrich. DMSO certified ACS grade was obtained from Fisher. The AlphaScreen FITC/streptavidin detection kit was from PerkinElmer Life and Analytical Sciences (Waltham, Mass.). Assay buffer consisted of PBS, pH 7.4, 80 mM KCl and 0.05% Tween-20. Recombinant Tdp1 was expressed and purified as described elsewhere (Antony et al., Nucleic Acids Research 35:4474-4484 (2007). The Sigma-Aldrich LOPAC^1280 library of 1280 known bioactives was received as DMSO solutions at initial concentration of 10 mM and plated as described elsewhere (Inglese et al., Proc. Natl. Acad. Sci. USA 103:11473-11478 (2006); Yasgar et al., J. Assoc. Lab. Automat. 13:78-89 (2008)).
The biotinylated phosphotyrosine deoxyoligonucleotide (5′ biotin-[…]-pY) was synthesized, purified, and QC-tested by Midland Certified Reagent Company, Midland, Tex. Standard overnight 4° C. FITC coupling was performed in-house. The FITC-labeled substrate was purified on Biospin-6 desalting columns (Bio-Rad, Hercules, Calif.) and its concentration was determined by UV-vis spectrophotometry.
Assay reaction mixtures and substrate/beads titrations were initially performed at 20 μl final volume in 384-well plates. For the subsequent 1,536-well based experiments, Flying Reagent Dispenser (FRD, Aurora Discovery, presently Beckman-Coulter) was used to dispense reagents into the assay plates, while a pintool was used to deliver DMSO solutions of the test inhibitors. Plates were read on Envision plate reader (PerkinElmer) equipped with AlphaScreen optical detection module. For testing the effect of enzyme reaction conditions on the IC50 values for select inhibitors, the respective compounds were prepared as 24-point twofold intra-plate dilution series and assayed as described.
Three μl of reagents (buffer in columns 3 and 4 as negative control and 1.33 nM Tdp1 in columns 1, 2, 5-48) were dispensed into 1,536-well black solid bottom plate. Compounds (final concentrations in the range of 0.7 nM to 57 μM) were transferred via Kalypsys pintool equipped with 1,536-pin array. The plate was incubated for 15 min at room temperature, and then 1 μl of substrate (15 nM final concentration) was added to start the reaction. After 5 min incubation at room temperature, 1 μl of bead mix (15 μg/mL final concentration) was added and the plate was further incubated for 10 min at room temperature prior to signal measurement. Substrate and beads were prepared and kept in amber bottles to prevent photo-degradation. Library plates were screened starting from the lowest and proceeding to the highest concentration. Vehicle-only plates, with DMSO being pin-transferred to the entire column 5-48 compound area, were included at the beginning and the end of the screen in order to record any systematic shifts in assay signal. Screening data were corrected, normalized, and curve-fitted by using in-house developed algorithms.
To configure an assay for Tdp1, we utilized the ability of the AlphaScreen system to report on the integrity of the phosphotyrosine-based substrate, viewed here as a multi-site analyte. The AlphaScreen signal is a direct consequence of the close proximity of donor and acceptor beads, which is achieved by the formation of a ternary donor-analyte-acceptor recognition complex. To realize the AlphaScreen assay using the consensus DNA-pY substrate for Tdp1, 5′[…]pY, recognition elements for both bead types had to be introduced. To this end, we coupled a fluorescein isothiocyanate (FITC) to the amino group of tyrosine in a phosphotyrosine-containing single stranded DNA substrate bearing a biotin at its 5′ end. […] Conversely, if the Tdp1 catalysis was inhibited, an elevated signal would be observed for that sample.
A general note: Alpha assays give light when donor and acceptor beads are brought close together.
Turning to `CN(C)[C@@H]1C(=O)C(C(N)=O)=C(O)[C@@]2(O)C(O)=C3C(=O)c4c(O)cccc4[C@@](C)(O)[C@H]3[C@H](O)[C@@H]12`, the IC50 came to 400 nM.

Turning to `CN(C)C1C(=O)C(C(N)=O)C(=O)C2(O)C(=O)C3C(=O)c4c(O)cccc4C(C)(O)C3C(O)C12` (centres unmarked), the IC50 is 200 nM.

The same test, now with this note: 1,536-well AlphaScreen qHTS; N/D = not detectable.
With `CN(C)C1C(O)=C(C(N)=O)C(=O)[C@@]2(O)C(O)=C3C(=O)c4c(O)cccc4[C@@](C)(O)C3CC12.Cl` (some centres unmarked), the “Activity (qHTS) IC50” value is recorded as “IC50: N/D”.

The same test, now with this note: 1,536-well AlphaScreen qHTS; N/D = not detectable; read-out: Activity (qHTS) IC50.
Consider `CN(C)C1C(O)=C(C(N)=O)C(=O)[C@@]2(O)C(O)=C3C(=O)c4c(O)cccc4[C@](C)(O)C3C(O)C12` (some centres unmarked), for which the IC50 was 630 nM.

Turning to `CN(C)C1C(O)=C(C(N)=O)C(=O)[C@]2(O)C(O)=C3C(=O)c4c(O)cccc4[C@](C)(O)C3C(O)C12` (some centres unmarked), the IC50 amounted to 3160 nM.

Turning to `CN(C)[C@@H]1C(O)=C(C(N)=O)C(=O)[C@]2(O)C(O)=C3C(=O)c4c(O)cccc4[C@@](C)(O)[C@H]3[C@H](O)[C@@H]12`, the IC50 is 1590 nM.

Consider `CN(C)C1C(O)=C(C(N)=O)C(=O)[C@@]2(O)C(O)=C3C(=O)c4c(O)cccc4[C@@](C)(O)C3[C@H](O)C12` (some centres unmarked), for which the IC50 amounted to 4470 nM.

In the case of `CN(C)[C@H]1C(O)=C(C(=O)NCN2CCCC2)C(=O)[C@]2(O)C(O)=C3C(=O)c4c(O)cccc4[C@](C)(O)[C@H]3C[C@H]12`, the IC50 came out at 200 nM.

Take `CN(C)[C@H]1C(O)=C(C(=O)NCN2CCCC2)C(=O)[C@]2(O)C(O)=C3C(=O)c4c(O)cccc4[C@@](C)(O)[C@H]3C[C@@H]12`: the IC50 was 1260 nM.

For the molecule `CN(C)[C@H]1C(O)=C(C(N)=O)C(=O)[C@]2(O)C(O)=C3C(=O)c4c(O)cccc4[C@@](C)(O)[C@H]3C[C@@H]12`, the IC50 is 14100 nM.

In the case of `CN(C)C1C(O)=C(C(N)=O)C(=O)[C@@]2(O)C(O)=C3C(=O)c4c(O)cccc4[C@@](C)(O)C3C[C@@H]12` (some centres unmarked), the IC50 came out at 10000 nM.

For `CN(C)[C@@H]1C(O)=C(C(N)=O)C(=O)[C@@]2(O)C(O)=C3C(=O)c4c(O)cccc4[C@@](C)(O)[C@H]3[C@H](O)[C@@H]12`, the IC50 was 500 nM.

Take `CN(C)[C@@H]1C(O)=C(C(=O)NCN2CCCC2)C(=O)[C@@]2(O)C(O)=C3C(=O)c4c(O)cccc4[C@@](C)(O)C3CC12` (some centres unmarked): the IC50 was 710 nM.

With `CN(C)[C@@H]1C(O)=C(C(N)=O)C(=O)[C@]2(O)C(O)=C3C(=O)c4c(O)ccc(Cl)c4[C@](C)(O)[C@H]3C[C@@H]12`, the IC50 is 2820 nM.

On to `CN(C)[C@H]1C(O)=C(C(=O)NCN[C@@H](CCCCN)C(=O)O)C(=O)[C@]2(O)C(O)=C3C(=O)c4c(O)cccc4[C@@](C)(O)[C@H]3C[C@@H]12`, for which the IC50 came out at 12600 nM.

As to `CN(C)C1C(O)=C(C(N)=O)C(=O)[C@@]2(O)C(O)=C3C(=O)c4c(O)ccc(Cl)c4[C@](C)(O)C3CC12` (some centres unmarked), the IC50 is 3160 nM.

Still in this test, the particulars now being: AlphaScreen assay set-up in 384-well plates.
In the case of `[O]=[V]([O-])([O-])[O-]` [vanadate, reference compound], the “Tdp1 inhibition potency range” value is “sub-millimolar”.

Another test deals with T1, Recombinant Tdp1. Nature of the test: Secondary radiolabel gel-based Tdp1 assay (N14Y substrate).
Details: not given
Format: biochemical. As to the method:
One nanomolar of 5′-^32P-labeled substrate (N14Y; 5′-[…]-Tyrosine-3′) was incubated with 0.1 nM recombinant Tdp1 in the absence or presence of inhibitor for 20 min at 25° C. in a reaction buffer containing 50 mM Tris-HCl (pH 7.5), 80 mM KCl, 2 mM EDTA, and 40 μg/ml BSA. Reactions were terminated by the addition of one volume of gel loading buffer (96% (v/v) formamide, 10 mM EDTA, 1% (w/v) xylene cyanol and 1% (w/v) bromphenol blue). The samples were subsequently heated to 95° C. for 5 min and subjected to 20% denaturing PAGE. When the Tdp1 mutant H493R (100 nM) was employed, the reactions were stopped with one volume of SDS loading dye and analyzed by 4-20% SDS-PAGE. All gels were dried and exposed on a PhosphorImager screen. Imaging and quantification were done using a Typhoon 8600 and ImageQuant software (GE Healthcare, Piscataway, N.J.).
Activity of certain compounds was also tested in secondary radiolabel gel-based assays (Inamdar et al., J. Biol. Chem. 277:27162-27168 (2002); Davies et al., J. Mol. Biol. 324:917-932 (2002)).
Turning to `CN(C)C1C(=O)C(C(N)=O)C(=O)C2(O)C(=O)C3C(=O)c4c(O)cccc4C(C)(O)C3C(O)C12` (centres unmarked), the IC50 came out at 5 µM.

Still in this test, the particulars now being: 1 nM N14Y, 0.1 nM Tdp1, 20 min at 25° C.; N/D = not detectable; read-out: Activity (Gel).
Consider `CN(C)C1C(O)=C(C(N)=O)C(=O)[C@@]2(O)C(O)=C3C(=O)c4c(O)cccc4[C@](C)(O)C3C(O)C12` (some centres unmarked), for which the IC50 worked out at 8 µM.

As to `CN(C)C1C(O)=C(C(N)=O)C(=O)[C@]2(O)C(O)=C3C(=O)c4c(O)cccc4[C@](C)(O)C3C(O)C12` (some centres unmarked), the IC50 amounted to 10 µM.

Take `CN(C)C1C(O)=C(C(N)=O)C(=O)[C@@]2(O)C(O)=C3C(=O)c4c(O)cccc4[C@@](C)(O)C3[C@H](O)C12` (some centres unmarked): the IC50 amounted to 3 µM.

Turning to `CN(C)[C@H]1C(O)=C(C(=O)NCN2CCCC2)C(=O)[C@]2(O)C(O)=C3C(=O)c4c(O)cccc4[C@@](C)(O)[C@H]3C[C@@H]12`, the IC50 is 30.2 µM.

Turning to `CN(C)[C@H]1C(O)=C(C(N)=O)C(=O)[C@]2(O)C(O)=C3C(=O)c4c(O)cccc4[C@@](C)(O)[C@H]3C[C@@H]12`, the IC50 came out at 10 µM.

As to `CN(C)[C@@H]1C(O)=C(C(N)=O)C(=O)[C@]2(O)C(O)=C3C(=O)c4c(O)ccc(Cl)c4[C@](C)(O)[C@H]3C[C@@H]12`, the IC50 stood at 13.2 µM.

Consider `CN(C)C1C(O)=C(C(N)=O)C(=O)[C@@]2(O)C(O)=C3C(=O)c4c(O)ccc(Cl)c4[C@](C)(O)C3CC12` (some centres unmarked), for which the IC50 turned out to be 20 µM.

The same test, now with this note: 1 nM N14Y, 0.1 nM Tdp1; value printed with question mark; read-out: Activity (Gel).
In the case of `CN(C)[C@H]1C(O)=C(C(=O)NCN2CCCC2)C(=O)[C@]2(O)C(O)=C3C(=O)c4c(O)cccc4[C@](C)(O)[C@H]3C[C@H]12`, the IC50 was below 0.1 µM.
